Data: US20250243189A1, “HERBICIDAL IMIDAZOLE-CONTAINING COMPOUNDS” (SYNGENTA CROP PROTECTION AG, priority 2022, published 2025)

Tests used:
Assay type in all cases: in vivo
Details in all cases: 250 g/ha, evaluated after 13 days, five-point scale
[1] = tested on: Echinochloa crus-galli (ECHCG); assay: Post-emergence herbicidal glasshouse test
Procedure: (§1) Seeds of a variety of test species are sown in standard soil in pots Amaranthus retoflexus (AMARE), Echinochloa crus-galli (ECHCG), Setaria faberi (SETFA)). After cultivation for one day (pre-emergence) or after 8 days cultivation (post-emergence) under controlled conditions in a glasshouse (at 24/16° C., day/night; 14 hours light; 65% humidity), the plants are sprayed with an aqueous spray solution derived from the formulation of the technical active ingredient in acetone/water (50:50) solution containing 0.5% Tween 20 (polyoxyethelyene sorbitan monolaurate, CAS RN 9005-64-5). Compounds are applied at 250 g/ha unless otherwise stated. The test plants are then grown in a glasshouse under controlled conditions in a glasshouse (at 24/16° C., day/night; 14 hours light; 65% humidity) and watered twice daily. After 13 days for pre and post-emergence, the test is evaluated for the percentage damage caused to the plant. The biological activities are shown in the following table on a five-point scale (5=81-100%; 4=61-80%; 3=41-60%; 2=21-40%; 1=0-20%).

[2] = tested on: Setaria faberi (SETFA); assay: Post-emergence herbicidal glasshouse test
Procedure: as §1

[3] = tested on: AMAPA; assay: Post-emergence herbicidal glasshouse test
Procedure: [Worded in the source for another organism; this organism is reported under the same test.] as §1

[4] = tested on: IPOHE; assay: Post-emergence herbicidal glasshouse test
Procedure: as §1

[5] = tested on: Amaranthus retoflexus (AMARE); assay: Post-emergence herbicidal glasshouse test
Procedure: as §1

[6] = tested on: Echinochloa crus-galli (ECHCG); assay: Pre-emergence herbicidal glasshouse test
Procedure: as §1

[7] = tested on: Setaria faberi (SETFA); assay: Pre-emergence herbicidal glasshouse test
Procedure: as §1

[8] = tested on: AMAPA; assay: Pre-emergence herbicidal glasshouse test
Procedure: [Worded in the source for another organism; this organism is reported under the same test.] as §1

[9] = tested on: IPOHE; assay: Pre-emergence herbicidal glasshouse test
Procedure: as §1

[10] = tested on: Amaranthus retoflexus (AMARE); assay: Pre-emergence herbicidal glasshouse test
Procedure: as §1

Compound | percentage damage caused to the plant, ECHCG [1] | percentage damage caused to the plant, SETFA [2] | percentage damage caused to the plant, AMAPA [3] | percentage damage caused to the plant, IPOHE [4] | percentage damage caused to the plant, AMARE [5] | percentage damage caused to the plant, ECHCG [6] | percentage damage caused to the plant, SETFA [7] | percentage damage caused to the plant, AMAPA [8] | percentage damage caused to the plant, IPOHE [9] | percentage damage caused to the plant, AMARE [10]
FC(F)(F)c1cn(Cc2ncc(Cl)cn2)c(-c2ccc(Cl)s2)n1 [Compound 1.001, 5-chloro-2-[[2-(5-chloro-2-thienyl)-4-(trifluoromethyl)imidazol-1-yl]methyl]pyrimidine] | 5 (5=81-100%) | 5 (5=81-100%) | 5 (5=81-100%) | 4 (4=61-80%) | 5 (5=81-100%) | 5 (5=81-100%) | 5 (5=81-100%) | 5 (5=81-100%) | 5 (5=81-100%) | 5 (5=81-100%)
Cn1cc(-c2nc(C(F)(F)F)cn2Cc2ncc(Cl)cn2)cn1 [Compound 1.014] | 2 (2=21-40%) | 2 (2=21-40%) | 3 (3=41-60%) | 3 (3=41-60%) | 3 (3=41-60%) | 4 (4=61-80%) | 4 (4=61-80%) | 5 (5=81-100%) | 5 (5=81-100%) | 4 (4=61-80%)
Cc1ccc(-c2nc(C(F)F)cn2Cc2ncc(Cl)cn2)s1 [Compound 1.068] | 1 (1=0-20%) | 1 (1=0-20%) | 2 (2=21-40%) | 1 (1=0-20%) | 3 (3=41-60%) | 3 (3=41-60%) | 4 (4=61-80%) | 5 (5=81-100%) | 4 (4=61-80%) | 5 (5=81-100%)
FC(F)(F)c1cn(Cc2ncc(Cl)cn2)c(-c2cc(Cl)sc2Cl)n1 [Compound 1.037] | 3 (3=41-60%) | 3 (3=41-60%) | 3 (3=41-60%) | 3 (3=41-60%) | 4 (4=61-80%) | 4 (4=61-80%) | 4 (4=61-80%) | 5 (5=81-100%) | 5 (5=81-100%) | 5 (5=81-100%)
FC(F)(F)c1cn(Cc2ncc(Cl)cn2)c(-c2ccc(Br)s2)n1 [Compound 1.069] | 5 (5=81-100%) | 5 (5=81-100%) | 5 (5=81-100%) | 4 (4=61-80%) | 5 (5=81-100%) | 5 (5=81-100%) | 5 (5=81-100%) | 5 (5=81-100%) | 5 (5=81-100%) | 5 (5=81-100%)
FC(F)(F)c1cn(Cc2ncc(Cl)cn2)c(-c2ccns2)n1 [Compound 1.033] | 5 (5=81-100%) | 5 (5=81-100%) | 5 (5=81-100%) | 4 (4=61-80%) | 5 (5=81-100%) | 5 (5=81-100%) | 5 (5=81-100%) | 5 (5=81-100%) | 5 (5=81-100%) | 5 (5=81-100%)
